In ChEMBL document CHEMBL1201862, “PubChem BioAssay data set” (2004):
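Tested at 5 concentrations; 48 h exposure; 96-well plates; endpoints linearly interpolated, else capped at highest concentration. Abbreviation: GI50, concentration required for 50% inhibition of growth.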 The source made the active and inactive calls. Rule as the data show it: active = GI50 up to about 1.1 µM and inactive = higher.

Tests used:
Assay in all cases: growth of human tumour cells (NCI), 48 h
RPMI-8226 = tested on: RPMI-8226
K562 = tested on: K562
KM12 = tested on: KM12
NCI-H460 = tested on: NCI-H460
NCI-H23 = tested on: NCI-H23
CAKI-1 = tested on: CAKI-1
IGROV-1 = tested on: IGROV-1
SF-268 = tested on: SF-268
A498 = tested on: A498
MDA-MB-231 = tested on: MDA-MB-231
U-251 = tested on: U-251
NCI-H522 = tested on: NCI-H522
Hs-578T = tested on: Hs-578T
LOX IMVI = tested on: LOX IMVI
RXF 393 = tested on: RXF 393
PC-3 = tested on: PC-3
SNB-19 = tested on: SNB-19
TK-10 = tested on: TK-10
UO-31 = tested on: UO-31
EKVX = tested on: EKVX
HCT-116 = tested on: HCT-116
M14 = tested on: M14
BT-549 = tested on: BT-549
UACC-62 = tested on: UACC-62
SR = tested on: SR
A549 = tested on: A549
NCI-H226 = tested on: NCI-H226
SN12C = tested on: SN12C
HOP-92 = tested on: HOP-92
COLO 205 = tested on: COLO 205
MOLT-4 = tested on: MOLT-4
HT-29 = tested on: HT-29
Malme-3M = tested on: Malme-3M
ACHN = tested on: ACHN
786-0 = tested on: 786-0
MDA-MB-435 = tested on: MDA-MB-435
SK-MEL-5 = tested on: SK-MEL-5
HL-60 = tested on: HL-60
HCT-15 = tested on: HCT-15
OVCAR-5 = tested on: OVCAR-5
HOP-62 = tested on: HOP-62
OVCAR-4 = tested on: OVCAR-4
SK-MEL-2 = tested on: SK-MEL-2
SW-620 = tested on: SW-620
DU-145 = tested on: DU-145
MCF7 = tested on: MCF7
NCI/ADR-RES = tested on: NCI/ADR-RES
OVCAR-3 = tested on: OVCAR-3
OVCAR-8 = tested on: OVCAR-8
HCC 2998 = tested on: HCC 2998
SF-295 = tested on: SF-295
CCRF-CEM = tested on: CCRF-CEM
MDA-N = tested on: MDA-N
SF-539 = tested on: SF-539
UACC-257 = tested on: UACC-257
SK-OV-3 = tested on: SK-OV-3
SNB-75 = tested on: SNB-75
SK-MEL-28 = tested on: SK-MEL-28

Nc1ccc(Oc2ccc(C3(c4ccc(Oc5ccc(N)c(O)c5)cc4)C4CC5C6CC7CC5C3C(C7)C6C4)cc2)cc1O
GI50 (RPMI-8226): 1.63 µM (inactive) | GI50 (K562): 2.19 µM (inactive) | GI50 (KM12): 1.86 µM (inactive) | GI50 (NCI-H460): 2.41 µM (inactive) | GI50 (NCI-H23): 2.47 µM (inactive) | GI50 (CAKI-1): 2.49 µM (inactive) | GI50 (IGROV-1): 2.2 µM (inactive) | GI50 (SF-268): 2.72 µM (inactive) | GI50 (A498): 2.55 µM (inactive) | GI50 (MDA-MB-231): 1.89 µM (inactive) | GI50 (U-251): 1.81 µM (inactive) | GI50 (NCI-H522): 1.83 µM (inactive) | GI50 (Hs-578T): 3.13 µM (inactive) | GI50 (LOX IMVI): 2.1 µM (inactive) | GI50 (RXF 393): 1.7 µM (inactive) | GI50 (PC-3): 1.86 µM (inactive) | GI50 (SNB-19): 3.3 µM (inactive) | GI50 (TK-10): 3.15 µM (inactive) | GI50 (UO-31): 2.04 µM (inactive) | GI50 (EKVX): 1.38 µM (inactive) | GI50 (HCT-116): 1.71 µM (inactive) | GI50 (M14): 1.45 µM (inactive) | GI50 (BT-549): 4.15 µM (inactive) | GI50 (UACC-62): 4.02 µM (inactive) | GI50 (SR): 2.25 µM (inactive) | GI50 (A549): 1.56 µM (inactive) | GI50 (NCI-H226): 2.72 µM (inactive) | GI50 (SN12C): 1.55 µM (inactive) | GI50 (HOP-92): 1.77 µM (inactive) | GI50 (COLO 205): 2.37 µM (inactive) | GI50 (MOLT-4): 2.07 µM (inactive) | GI50 (HT-29): 1.91 µM (inactive) | GI50 (Malme-3M): 3.23 µM (inactive) | GI50 (ACHN): 1.75 µM (inactive) | GI50 (786-0): 1.73 µM (inactive) | GI50 (MDA-MB-435): 1.53 µM (inactive) | GI50 (SK-MEL-5): 3.86 µM (inactive) | GI50 (HL-60): 2.44 µM (inactive) | GI50 (HCT-15): 2.4 µM | GI50 (OVCAR-5): 1.31 µM (inactive) | GI50 (HOP-62): 1.73 µM (inactive) | GI50 (OVCAR-4): 2.35 µM (inactive) | GI50 (SK-MEL-2): 2.36 µM (inactive) | GI50 (SW-620): 2.18 µM (inactive) | GI50 (DU-145): 1.86 µM (inactive) | GI50 (MCF7): 1.69 µM (inactive) | GI50 (NCI/ADR-RES): 5.62 µM (inactive) | GI50 (OVCAR-3): 1.52 µM (inactive) | GI50 (OVCAR-8): 1.8 µM (inactive) | GI50 (HCC 2998): 1.85 µM (inactive) | GI50 (SF-295): 2.77 µM (inactive) | GI50 (CCRF-CEM): 16 µM (inactive) | GI50 (MDA-N): 1.36 µM (inactive) | GI50 (SF-539): 2.61 µM (inactive) | GI50 (UACC-257): 2.5 µM (inactive)

c1ccc2sc(C3(N4CCCCC4)CCCC3)cc2c1
GI50 (RPMI-8226): 2.38 µM (inactive) | GI50 (K562): 6.61 µM (inactive) | GI50 (KM12): 7.01 µM (inactive) | GI50 (NCI-H460): 5.93 µM (inactive) | GI50 (NCI-H23): 4.06 µM (inactive) | GI50 (CAKI-1): 18.1 µM (inactive) | GI50 (IGROV-1): 10.6 µM (inactive) | GI50 (SF-268): 11.4 µM (inactive) | GI50 (A498): 12.7 µM (inactive) | GI50 (NCI-H522): 11.4 µM (inactive) | GI50 (Hs-578T): 14.1 µM (inactive) | GI50 (LOX IMVI): 17.9 µM (inactive) | GI50 (RXF 393): 14.1 µM (inactive) | GI50 (SNB-19): 13.8 µM (inactive) | GI50 (TK-10): 13.6 µM (inactive) | GI50 (SK-OV-3): 15.9 µM (inactive) | GI50 (UO-31): 16.9 µM (inactive) | GI50 (EKVX): 7.14 µM (inactive) | GI50 (HCT-116): 5.94 µM (inactive) | GI50 (M14): 15.1 µM (inactive) | GI50 (BT-549): 12.6 µM (inactive) | GI50 (UACC-62): 15.5 µM (inactive) | GI50 (SR): 0.838 µM (active) | GI50 (A549): 5.43 µM (inactive) | GI50 (NCI-H226): 1.79 µM (inactive) | GI50 (SN12C): 13.5 µM (inactive) | GI50 (HOP-92): 11.2 µM (inactive) | GI50 (COLO 205): 5.53 µM (inactive) | GI50 (MOLT-4): 3.52 µM (inactive) | GI50 (HT-29): 3.24 µM (inactive) | GI50 (Malme-3M): 13.8 µM (inactive) | GI50 (ACHN): 8.65 µM (inactive) | GI50 (786-0): 9.93 µM (inactive) | GI50 (MDA-MB-435): 14.9 µM (inactive) | GI50 (SK-MEL-5): 10.9 µM (inactive) | GI50 (HL-60): 4.69 µM (inactive) | GI50 (SNB-75): 15.9 µM (inactive) | GI50 (HCT-15): 5.92 µM | GI50 (OVCAR-5): 11 µM (inactive) | GI50 (HOP-62): 15 µM (inactive) | GI50 (OVCAR-4): 9.02 µM (inactive) | GI50 (SW-620): 8.02 µM (inactive) | GI50 (DU-145): 11.3 µM (inactive) | GI50 (MCF7): 8.02 µM (inactive) | GI50 (NCI/ADR-RES): 6.24 µM (inactive) | GI50 (OVCAR-3): 8.69 µM (inactive) | GI50 (OVCAR-8): 10.4 µM (inactive) | GI50 (HCC 2998): 3.85 µM (inactive) | GI50 (SF-295): 11 µM (inactive) | GI50 (CCRF-CEM): 3.5 µM (inactive) | GI50 (SK-MEL-28): 14.6 µM (inactive) | GI50 (MDA-N): 17.4 µM (inactive) | GI50 (SF-539): 16.1 µM (inactive) | GI50 (UACC-257): 14.6 µM (inactive)

COc1cc(C2C3=C(COC3=O)Oc3cc4c(cc32)OCO4)cc(OC)c1OC(C)=O (stereo unspecified)
GI50 (RPMI-8226): 0.0318 µM (active) | GI50 (K562): 0.0122 µM (active) | GI50 (KM12): 0.0135 µM (active) | GI50 (NCI-H460): 0.0212 µM (active) | GI50 (NCI-H23): 0.0233 µM (active) | GI50 (CAKI-1): < 0.01 µM (active) | GI50 (IGROV-1): 0.0239 µM (active) | GI50 (SF-268): 0.0608 µM (active) | GI50 (A498): 0.0116 µM (active) | GI50 (MDA-MB-231): 0.038 µM (active) | GI50 (U-251): 0.0388 µM (active) | GI50 (NCI-H522): < 0.01 µM (active) | GI50 (Hs-578T): 0.0101 µM (active) | GI50 (LOX IMVI): 0.0331 µM (active) | GI50 (RXF 393): < 0.01 µM (active) | GI50 (PC-3): < 0.01 µM (active) | GI50 (SNB-19): 0.024 µM (active) | GI50 (TK-10): 0.966 µM (active) | GI50 (UO-31): < 0.0124 µM (active) | GI50 (EKVX): 0.0435 µM (active) | GI50 (HCT-116): 0.0207 µM (active) | GI50 (M14): 0.0216 µM (active) | GI50 (BT-549): 0.0255 µM (active) | GI50 (UACC-62): < 0.01 µM (active) | GI50 (SR): 0.0406 µM (active) | GI50 (A549): 0.0462 µM (active) | GI50 (NCI-H226): < 0.0376 µM (active) | GI50 (SN12C): 0.619 µM (active) | GI50 (COLO 205): 0.027 µM (active) | GI50 (MOLT-4): 0.0612 µM (active) | GI50 (HT-29): 0.0262 µM (active) | GI50 (Malme-3M): < 0.0215 µM (active) | GI50 (ACHN): < 0.01 µM (active) | GI50 (786-0): 0.0186 µM (active) | GI50 (MDA-MB-435): < 0.01 µM (active) | GI50 (SK-MEL-5): < 0.01 µM (active) | GI50 (HL-60): < 0.0104 µM (active) | GI50 (HCT-15): 0.0226 µM | GI50 (HOP-62): 0.0157 µM (active) | GI50 (OVCAR-4): 29.6 µM (inactive) | GI50 (SK-MEL-2): 37 µM (inactive) | GI50 (SW-620): 0.0202 µM (active) | GI50 (DU-145): 0.0381 µM (active) | GI50 (MCF7): < 0.012 µM (active) | GI50 (NCI/ADR-RES): < 0.01 µM (active) | GI50 (OVCAR-3): 0.0197 µM (active) | GI50 (OVCAR-8): 0.0316 µM (active) | GI50 (HCC 2998): 0.0547 µM (active) | GI50 (SF-295): 0.0316 µM (active) | GI50 (CCRF-CEM): 0.0258 µM (active) | GI50 (MDA-N): < 0.01 µM (active) | GI50 (SF-539): < 0.01 µM (active)
